These results are taken from ChEMBL document CHEMBL1149954, “Synthesis of methyl -sialosides N-substituted with large alkanoyl groups, and investigation of their inhibition of agglutination of erythrocytes by influenza A virus” (Bioorg Med Chem Lett, 1993).

The species entered for one assay is Gallus gallus. The experiment in a line: Compound was tested for its ability to displace a fluorescent ligand from the active site of bromelaine-cleaved hemagglutininin (BHA) at concentrations above 5 mM; no displacement was observed.
The nature of assay [1]: Compound was tested for the inhibition of hemagglutinination when incorporated into liposomes (Hemagglutinination inhibition (HAI) assay); no inhibition took place.
The nature of assay [2]: Compound was tested for its ability to displace a fluorescent ligand from the active site of bromelaine-cleaved hemagglutininin (BHA). On the set-up: species or system Gallus gallus.

Molecules are shown by their SMILES. pKd, pKi: −log10 of the molar value. Bounds are passed on as bounds.

`CCCCCCCC(=O)NC1C(O)CC(OC)(C(=O)O)OC1[C@H](O)[C@H](O)CO` (stereo partly drawn): in the assay filed under Gallus gallus, the Binding affinity entry was “no displacement was observed”.
As for `CCCCCCCCCCCCCC(=O)NC1C(O)CC(OC)(C(=O)O)OC1[C@H](O)[C@H](O)CO` (stereo partly drawn), the pKi (usually the Ki on a negative log10 scale, so that one unit is a factor of ten) in assay [1] is less than 3.00.
For the compound `COC(=O)C1(OC)CC(O)C(NC(C)=O)C([C@H](O)[C@H](O)CO)O1` (stereo partly drawn), the pKd (as a rule, −log10 of the Kd, conventionally taken in molar units) in assay [2] is 2.55.
